Laboratory results: patent EP4696306A1, “ADENOSINE TRIPHOSPHATE SECRETION INHIBITOR, HEPATIC STELLATE CELL ACTIVATION INHIBITOR, HEPATIC STELLATE CELL DEACTIVATOR, HEPATIC FIBROSIS THERAPEUTIC AGENT, NON-ALCOHOLIC STEATOHEPATITIS THERAPEUTIC AGENT, PSORIASIS THERAPEUTIC AGENT, AND USE OF COMPOUND FOR PRODUCING ADENOSINE TRIPHOSPHATE …” (KURUME UNIVERSITY, priority 2023, dated 2024)

Key:
[1] = system: catecholamine transport; assay: Catecholamine (3H-dopamine) transport in chromaffin granule membranes; assay type: biochemical, bovine
Experimental: (§1) Chromaffin granule membranes were prepared from adrenal glands collected from slaughtered cattle according to Reference A (Nathan Nelson et al., 1988, Chromaffin Granule Proton Pump, Methods in Enzymology, 157, 619-633). Chromaffin granule membranes prepared by sucrose density gradient centrifugation were suspended in 2 ml of SME buffer (20 mM MOPS-tris (pH 7.0), 0.3 M sucrose, 5 mM EDTA, 10 µg/ml leupeptin, and 10 µg/ml pepstatin) + 25% glycerol, and the resulting suspension was aliquoted and stored at -80°C. Under these conditions, the ATP transport activity, the V-ATPase activity, and the catecholamine transport activity remain fully active for at least one year.
A catecholamine transport inhibition experiment was carried out in the same manner as the ATP transport experiment except that the experiment used a measurement liquid containing 20 mM MOPS-tris (pH 7.0), 0.1 M sucrose, 0.1 M potassium chloride, 5 mM magnesium acetate, and about 5 µg of chromaffin granule membranes. To 0.5 ml of the measurement liquid, 2 mM ATP was added, and the resulting mixture was incubated at 30°C for about 5 minutes, followed by addition of^3 [H]-dopamine thereto to a final concentration of 10 µM. After further incubation at 30°C for 15 minutes, 0.2 ml of the reaction liquid was subjected to suction filtration through a Millipore MCE membrane filter with a pore size of 0.45 µm, and the radioactivity on the filter was measured (N = 3). The substrate, ^3[H]-dopamine, was prepared by mixing 3,4-[RING-2,5,6-^3H]dihydroxyphenylethylamine (dopamine) (30 Ci/mmol) (manufactured by New England Nuclear) with dopamine hydrochloride (manufactured by LKT Laboratories) such that a final concentration of 0.1 mM was achieved during the use.
(§2) Chromaffin granule membrane vesicles were prepared in the same manner as in Example 5, and uptake of radiolabeled ATP into the vesicles was measured. Transport activity of catecholamine (dopamine) and ATP-dependent proton transport by V-ATPase were also measured in the same manner as in Example 5.

[2] = target: T1, V-ATPase (Bos taurus, UniProt P31404); assay: ATP-dependent proton transport by V-ATPase (acridine orange / oxonol-V fluorescence quenching); assay type: biochemical, bovine
T1 construct: from tissue; host or cells: bovine adrenal medulla chromaffin granule membranes
T1 sequence (P31404 whole entry, looked up): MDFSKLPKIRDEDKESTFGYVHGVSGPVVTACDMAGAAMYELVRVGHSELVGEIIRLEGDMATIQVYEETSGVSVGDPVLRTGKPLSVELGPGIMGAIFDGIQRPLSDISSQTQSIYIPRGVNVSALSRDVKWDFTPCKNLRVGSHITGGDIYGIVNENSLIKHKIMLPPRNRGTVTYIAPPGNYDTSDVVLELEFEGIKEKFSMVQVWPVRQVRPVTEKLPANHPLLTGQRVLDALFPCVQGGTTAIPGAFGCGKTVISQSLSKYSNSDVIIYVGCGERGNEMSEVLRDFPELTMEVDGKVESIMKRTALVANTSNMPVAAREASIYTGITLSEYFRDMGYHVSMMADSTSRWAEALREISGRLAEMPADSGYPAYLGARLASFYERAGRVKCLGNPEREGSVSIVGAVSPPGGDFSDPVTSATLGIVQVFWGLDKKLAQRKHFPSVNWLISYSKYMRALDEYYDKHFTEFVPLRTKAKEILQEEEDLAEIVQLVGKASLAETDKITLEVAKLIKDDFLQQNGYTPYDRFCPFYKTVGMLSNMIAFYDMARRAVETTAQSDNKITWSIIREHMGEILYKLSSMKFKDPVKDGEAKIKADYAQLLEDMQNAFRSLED
Experimental: as §1
ATP-dependent proton transport by V-ATPase was measured according to Reference B. Proton transport activity was measured using a spectrofluorometer at excitation wavelength of 492 nm and a fluorescence wavelength 540 nm, wherein fluorescence quenching of acridine orange was used as an index (N = 2). The transmembrane potential generated was measured using a spectrofluorometer at an excitation wavelength of 580 nm and a fluorescence wavelength of 630 nm, wherein fluorescence quenching of oxonol-V was used as an index (N = 2). The acridine measurement liquid (2 ml) contained 20 mM MOPS-tris (pH 7.0), 0.2 M sucrose, 0.1 M potassium chloride, 5 mM magnesium acetate, 0.2 µg valinomycin, 2 µM acridine orange, and about 20 µg of chromaffin granules. The oxonol-V measurement liquid (2 ml) contained 20 mM MOPS-tris (pH 7.0), 0.3 M sucrose, 5 mM magnesium acetate, 5 µM oxonol-V, and about 20 µg of chromaffin granules.
as §2

[3] = system: ATP-loaded vesicles; assay: MANT-ATP accumulation in ATP-loaded granules of keratinocytes (confocal microscopy); assay type: cell-based, human; conditions: 10 µM imeglimin, 19 hours; 0.3 mM MANT-ATP
Experimental: Keratinocytes were cultured in the same manner as in Example 8. Keratinocytes were cultured at 4 × 10^4 cells/ml in a glass-bottom dish (35 mm, manufactured by Matsunami Glass Ind., Ltd.) at 37°C in 5% CO2 for 2 days. The culture medium was then replaced with a medium supplemented with MANT-ATP (manufactured by Invitrogen) at a final concentration of 0.3 mM, and further incubation was performed for 4.5 hours. Subsequently, imeglimin was added thereto to a final concentration of 10 µM, and further incubation was performed at 37°C in 5% CO2 for 19 hours. Thereafter, the cells were washed twice with HBSS (manufactured by Gibco) and observed using an inverted confocal laser microscope (FV-1000 OSR, manufactured by Olympus Corporation).

[4] = target: T2, VNUT (Homo sapiens, UniProt Q9BYT1); assay: Inhibitory effect on VNUT (data not shown); assay type: biochemical
T2 sequence (Q9BYT1 1-436): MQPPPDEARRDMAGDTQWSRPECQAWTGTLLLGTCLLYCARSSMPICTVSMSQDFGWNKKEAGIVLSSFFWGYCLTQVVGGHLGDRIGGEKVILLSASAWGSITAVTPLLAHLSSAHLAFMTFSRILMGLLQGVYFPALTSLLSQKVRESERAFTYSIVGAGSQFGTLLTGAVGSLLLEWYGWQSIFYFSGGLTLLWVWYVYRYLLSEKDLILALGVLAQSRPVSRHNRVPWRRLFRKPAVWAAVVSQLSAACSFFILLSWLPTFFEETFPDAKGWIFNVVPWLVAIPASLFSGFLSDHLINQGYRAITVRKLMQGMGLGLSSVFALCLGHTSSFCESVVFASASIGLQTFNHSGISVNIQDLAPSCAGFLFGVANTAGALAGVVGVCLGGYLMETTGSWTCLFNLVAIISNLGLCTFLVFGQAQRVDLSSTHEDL

[5] = target: V-ATPase (Homo sapiens, UniProt P38606); assay: Inhibitory effect on V-ATPase (data not shown); assay type: biochemical
V-ATPase (Homo sapiens, UniProt P38606), sequence (P38606 whole entry): as the sequence (P31404 whole entry, looked up) above, with R10L, V131I, N157S, I199V, S204T, E576D, V590L, A599S counted along it

[6] = system: imiquimod-induced psoriasis relapse; assay: Imiquimod-induced psoriasis relapse model; assay type: in vivo, mice; conditions: imeglimin 40 mg/kg orally, alternate days Day 8 to 22, then daily from Day 23; compared to IMQ
Experimental: To the left auricle of each mouse, 62.5 mg of 5% imiquimod cream (Beselna Cream 5%) was applied once daily a total of seven times (Days 1 to 7) in accordance with Example 19 to induce imiquimod-induced psoriasis. Thereafter, the imiquimod treatment was interrupted, and imeglimin (40 mg/kg) was orally administered on alternate days for 2 weeks (Day 8 to 22) (IMG). Mice without administration of imeglimin were designated IMQ. On Day 23, the imiquimod treatment was resumed, and 62.5 mg of 5% imiquimod cream (Beselna Cream 5%) was applied once daily a total of […]. In parallel, imeglimin (40 mg/kg) was orally administered daily to IMG.

[7] = 1 g of imeglimin hydrochloride daily for one week; cited from earlier work
[8] = concentrations of up to 5 mM, data not shown

With `C=C(OP(=O)(O)O)C(=O)O` [PEP, phosphoenolpyruvic acid] the “inhibition of catecholamine transport” value [1, 8] was “did not inhibit”, the “ATP-dependent dopamine transport activity” value ([1]; in the presence of 5 mM PEP, control 11.07 ± 0.129, N = 3) was 12.41 ± 0.250 nmol/mg protein and the “quenching of oxonol-V fluorescence (transmembrane potential)” value ([2]; addition of 5 mM PEP, ATP alone quenched by 40%, N = 2) was “did not change the level of quenching”. The “quenching of acridine orange fluorescence (proton transport)” value ([2]; addition of 5 mM PEP, ATP alone quenched by 62%, N = 2) was “did not change the level of quenching” and the “inhibition of V-ATPase” value [2, 8] was “did not inhibit”.

In the case of `C[C@H]1N=C(N(C)C)N=C(N)N1` [imeglimin], the “accumulation of MANT-ATP in granules” value [3] is reported as “this accumulation was absent”, the “inhibitory effect on VNUT” value [4] is reported as “neither imeglimin nor metformin exhibited a strong inhibitory effect” and the “inhibitory effect on V-ATPase” value [5] is reported as “neither imeglimin nor metformin exhibited a strong inhibitory effect”. For the same compound, the “psoriatic symptoms (auricular thickness) after resumed imiquimod treatment” value [6] was “markedly reduced” and the blood imeglimin concentration [7] was 9 µM.
